Reference: patent publication US10508087B2, “Crystalline forms of trisodium supramolecular complex comprising valsartan and AHU-377 and methods thereof” (CRYSTAL PHARMATECH CO., LTD., priority 2014, dated 2019)
Values joined by “and” are separate entries in the source; they are usually repeats but may differ in a detail not shown here. Equal values may be shown once. “Also recorded” adds a separate entry of the source. Read-outs that look alike come from different tables or passages of the source.

Key:
[1] = not given; remark: listed apart in the source
[2] = Crystal form stability of drug substance in different temperature and humidity conditions; type: physicochemical
Experimental: The drug substance of Form II was subjected to different relative humidity levels at 40° C. (±2° C.), samples were pulled out and evaluated for crystal form after a specified time period, and the results are summarized in Table 10.
The drug substance of Form II was subjected to different temperatures at RH 32% (±5%), samples were pulled out and evaluated for crystal form after a specified time period, the results are summarized in Table 11.
The drug substance of Form II was packed with PE to evaluate the stability.
The drug substance of Form II was stored in sealed glass vial under ambient conditions for 9 months.

[3] = drug substance powder, individual determination, trihydrate

SMILES | moisture uptake compared to patent form (DVS) (humidity levels 20% RH to 60% RH at 25° C., hydrate) | Compressibility Index ([1]; (Tapped Density-Bulk Density)/Tapped Density*100%, individual determination, trihydrate) | Compressibility Index Average ([1]; average of the determinations) [%] | flowability compared with patent form ([1]; by compressibility index) | Bulk Density [1, 3] | Tapped Density [1, 3] | Flowability ([1]; rating by compressibility index, USP<1174>, trihydrate) | Crystal form stability, accelerated ([2]; packed with PE, 40° C., RH 75%, one month) | Crystal form stability ([2]; sealed glass vial, ambient conditions, 9 months) | moisture uptake compared to patent form (DVS) (humidity levels 50% RH to 60% RH at 25° C., trihydrate)
CCCCC(=O)N(Cc1ccc(-c2ccccc2-c2nnn[n-]2)cc1)[C@H](C(=O)[O-])C(C)C.CCOC(=O)[C@H](C)C[C@@H](Cc1ccc(-c2ccccc2)cc1)NC(=O)CCC(=O)[O-].O.[Na+].[Na+].[Na+] [Form I, trisodium [3-((1S,3R)-1-biphenyl-4-ylmethyl-3-ethoxycarbonyl-1-butylcarbamoyl) propionate-(S)-3′-methyl-2′-(pentanoyl{2″-(tetrazol-5-ylate)biphenyl-4′-ylmethyl}amino) butyrate] hydrate] | less hygroscopic; also recorded: less moisture uptake | – | – | – | – | – | – | – | – | –
CCCCC(=O)N(Cc1ccc(-c2ccccc2-c2nnn[n-]2)cc1)[C@H](C(=O)[O-])C(C)C.CCOC(=O)[C@H](C)C[C@@H](Cc1ccc(-c2ccccc2)cc1)NC(=O)CCC(=O)[O-].O.O.O.[Na+].[Na+].[Na+] [Form II, trisodium [3-((1S,3R)-1-biphenyl-4-ylmethyl-3-ethoxycarbonyl-1-butylcarbamoyl) propionate-(S)-3′-methyl-2′-(pentanoyl{2″-(tetrazol-5-ylate)biphenyl-4′-ylmethyl}amino) butyrate] trihydrate] | – | 22% and 23% (2×) | 22 | better | 0.197 g/mL and 0.229 g/mL and 0.258 g/mL | 0.251 g/mL and 0.297 g/mL and 0.337 g/mL | Passable | remained stable | remained stable | less hygroscopic; also recorded: less moisture uptake
